The values below come from PubChem BioAssay AID330 (DTP/NCI, 2004).

“And” between values parts separate entries of the source, which are not always exact repeats. Identical values can stand only once. Inconclusive results and toxic doses are left out.

The experiment concerns P388 leukemia ip, CD2F1 mice, survival T/C. Nature of the experiment: NCI In Vivo Anticancer Drug Screen. Data for tumor model P388 Leukemia (intraperitoneal) in CD2F1 (CDF1) mice. The following applies: endpoint: median survival time, higher = longer survival. The essentials: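 Mice carrying the transplanted tumor received test compound or vehicle. Survival was recorded in each group, and the value is the treated-group measurement divided by that of the vehicle-treated control group.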

[1] abbreviates: dose: 50.0 mg/kg/injection, schedule: Q01DX009 (ip), vehicle: saline with Tween-80.
Setting [2] is: dose: 100.0 mg/kg/injection, schedule: Q01DX009 (ip), vehicle: saline with Tween-80.
[3] abbreviates: dose: 200.0 mg/kg/injection, schedule: Q01DX009 (ip), vehicle: saline with Tween-80.
The mark [4] stands for this setting: dose: 50.0 mg/kg/injection, schedule: Q01DX005 (ip), vehicle: saline.
Setting [5] is: dose: 100.0 mg/kg/injection, schedule: Q01DX005 (ip), vehicle: saline.
[6] abbreviates: dose: 60.0 mg/kg/injection, schedule: Q01DX005 (ip), vehicle: saline with Tween-80.
Setting [7] is: dose: 120.0 mg/kg/injection, schedule: Q01DX005 (ip), vehicle: saline with Tween-80.
Where [8] appears, read: dose: 60.0 mg/kg/injection, schedule: Q01DX005 (ip), vehicle: Klucel (hydroxypropylcellulose) (HPC).
Setting [9] is: dose: 120.0 mg/kg/injection, schedule: Q01DX005 (ip), vehicle: Klucel (hydroxypropylcellulose) (HPC).
Where [10] appears, read: dose: 240.0 mg/kg/injection, schedule: Q01DX005 (ip), vehicle: Klucel (hydroxypropylcellulose) (HPC).
The mark [11] stands for this setting: dose: 240.0 mg/kg/injection, schedule: Q01DX005 (ip), vehicle: saline with Tween-80.
[12] abbreviates: dose: 50.0 mg/kg/injection, schedule: Q01DX005 (ip), vehicle: saline with Tween-80.
Setting [13] is: dose: 100.0 mg/kg/injection, schedule: Q01DX005 (ip), vehicle: saline with Tween-80.
Setting [14] is: dose: 200.0 mg/kg/injection, schedule: Q01DX005 (ip), vehicle: saline with Tween-80.

On to `COc1cc(Cl)nc(OC)n1`, for which the T/C was 108 % of control (dose: 25.0 mg/kg/injection, schedule: Q01DX009 (ip), vehicle: saline with Tween-80); 89 % of control under setting [1]; 103 % of control under setting [2]; 103 % of control under setting [3].

As to `CCn1c(C)c(COC(=O)NC)c(COC(=O)NC)c1-c1ccc(Cl)c(Cl)c1`, the T/C is, setting by setting: (dose: 6.25 mg/kg/injection, schedule: Q01DX009 (ip), vehicle: distilled water + Tween-80) 150 % of control and 152 % of control; (dose: 12.5 mg/kg/injection, schedule: Q01DX009 (ip), vehicle: distilled water + Tween-80) 153 % of control.

In the case of `C[CH2][Sn]([CH2]C(=O)OC)([CH2]C(=O)OC)[c]1ccccc1`, the T/C reads like this: (dose: 25.0 mg/kg/injection, schedule: Q01DX005 (ip), vehicle: saline) 157 % of control; under setting [4], 181 % of control; under setting [5], 168 % of control.

Consider `O=S(=O)(O)O.[NH-]C(c1ccccc1)C([NH-])c1ccccc1.[Pt+2]` (stereo unspecified), for which the T/C reads like this: (dose: 1.56 mg/kg/injection, schedule: Q04DX002 (ip), vehicle: saline) 110 % of control; (dose: 6.25 mg/kg/injection, schedule: Q04DX002 (ip), vehicle: saline) 163 % of control; (dose: 12.5 mg/kg/injection, schedule: Q04DX002 (ip), vehicle: saline) 157 % of control and 173 % of control; (dose: 25.0 mg/kg/injection, schedule: Q04DX002 (ip), vehicle: saline) 153 % of control and 169 % of control and 185 % of control.

In the case of `Cc1noc(/N=N/N(C)c2ccccc2)c1C`, the T/C is 103 % of control under setting [1] and 96 % of control under setting [2].

Regarding `O=C1/C(=C/N2CCN(c3ccccc3)CC2)Cc2c(Cl)cccc21`, the T/C reads like this: (dose: 100.0 mg/kg/injection, schedule: Q04DX002 (ip), vehicle: Klucel (hydroxypropylcellulose) (HPC)) 105 % of control; (dose: 200.0 mg/kg/injection, schedule: Q04DX002 (ip), vehicle: Klucel (hydroxypropylcellulose) (HPC)) 114 % of control; (dose: 400.0 mg/kg/injection, schedule: Q04DX002 (ip), vehicle: Klucel (hydroxypropylcellulose) (HPC)) 102 % of control.

For `CN1C(c2ccccc2)CC(C)(O)CC1c1ccccc1` (stereo unspecified), the T/C under setting [6] is 97 % of control and the T/C under setting [7] is 98 % of control.

As for `COc1ccc(C2[C@H](C(=O)O)c3ccccc3C(=O)N2Cc2ccccc2)cc1` (stereo partly specified), the T/C was 101 % of control (dose: 100.0 mg/kg/injection, schedule: Q04DX002 (ip), vehicle: saline with Tween-80); 104 % of control (dose: 200.0 mg/kg/injection, schedule: Q04DX002 (ip), vehicle: saline with Tween-80); 103 % of control (dose: 400.0 mg/kg/injection, schedule: Q04DX002 (ip), vehicle: saline with Tween-80).

On to `Oc1ccccc1/C=N/NC(=S)NC1CC2C=CC1C2` (stereo unspecified), for which the T/C (dose: 12.5 mg/kg/injection, schedule: Q01DX009 (ip), vehicle: olive oil, sesame oil, peanut oil) is 100 % of control; the T/C (dose: 25.0 mg/kg/injection, schedule: Q01DX009 (ip), vehicle: olive oil, sesame oil, peanut oil) was 102 % of control; the T/C (dose: 50.0 mg/kg/injection, schedule: Q01DX009 (ip), vehicle: olive oil, sesame oil, peanut oil) is 97 % of control; the T/C (dose: 100.0 mg/kg/injection, schedule: Q01DX009 (ip), vehicle: olive oil, sesame oil, peanut oil) is 97 % of control; the T/C (dose: 200.0 mg/kg/injection, schedule: Q01DX009 (ip), vehicle: olive oil, sesame oil, peanut oil) was 102 % of control; the T/C (dose: 400.0 mg/kg/injection, schedule: Q01DX009 (ip), vehicle: olive oil, sesame oil, peanut oil) is 97 % of control.

Take `CC(C)C1=CC2=C(C(=O)C1=O)C13CCCC(C)(C)C1CC2OC3=O` (stereo unspecified): the T/C runs as follows: (dose: 7.0 mg/kg/injection, schedule: Q01DX005 (ip), vehicle: saline with Tween-80) 105 % of control; (dose: 14.0 mg/kg/injection, schedule: Q01DX005 (ip), vehicle: saline with Tween-80) 104 % of control; (dose: 28.0 mg/kg/injection, schedule: Q01DX005 (ip), vehicle: saline with Tween-80) 109 % of control.

Turning to `O=C1C(Cc2ccccc2)C(=O)N2c3ccccc3C=CC2N1c1ccccc1` (stereo unspecified), the T/C was 98 % of control under setting [8], 97 % of control under setting [9] and 89 % of control under setting [10].

Consider `CC1CCCCN1CC(C)(C)C` (stereo unspecified), for which the T/C runs as follows: under setting [8], 100 % of control; under setting [9], 93 % of control.

In the case of `CCOC(=O)C1CN(C(=O)OCC)CCC1NC(C)=O` (stereo unspecified), the T/C by setting is: under setting [8], 102 % of control; under setting [9], 96 % of control; under setting [10], 98 % of control.

Take `CN(CCC(=O)/C(=C\c1ccccc1)c1ccc(Cl)cc1)Cc1ccccc1`: the T/C is, setting by setting: (dose: 0.4 mg/kg/injection, schedule: Q01DX005 (ip), vehicle: saline with Tween-80) 101 % of control; (dose: 0.8 mg/kg/injection, schedule: Q01DX005 (ip), vehicle: saline with Tween-80) 102 % of control; (dose: 1.6 mg/kg/injection, schedule: Q01DX005 (ip), vehicle: saline with Tween-80) 109 % of control; (dose: 3.12 mg/kg/injection, schedule: Q01DX005 (ip), vehicle: saline with Tween-80) 109 % of control; (dose: 6.25 mg/kg/injection, schedule: Q01DX005 (ip), vehicle: saline with Tween-80) 111 % of control.

Regarding `CC1=CC2(C)OC3C(=O)N(c4ccc(Cl)cc4)C(=O)C3C2N=C1` (stereo unspecified), the T/C runs as follows: under setting [6], 104 % of control; under setting [7], 99 % of control; under setting [11], 100 % of control.

Take `O=c1[nH]nc(SCc2ccc(Cl)cc2)c(=O)[nH]1`: the T/C by setting is: (dose: 25.0 mg/kg/injection, schedule: Q01DX005 (ip), vehicle: Klucel (hydroxypropylcellulose) (HPC)) 92 % of control; (dose: 50.0 mg/kg/injection, schedule: Q01DX005 (ip), vehicle: Klucel (hydroxypropylcellulose) (HPC)) 91 % of control; (dose: 100.0 mg/kg/injection, schedule: Q01DX005 (ip), vehicle: Klucel (hydroxypropylcellulose) (HPC)) 90 % of control; (dose: 200.0 mg/kg/injection, schedule: Q01DX005 (ip), vehicle: Klucel (hydroxypropylcellulose) (HPC)) 87 % of control.

Consider `CC(C)c1nc2c(n1Cc1ccccc1)C=C(C(=O)c1ccccc1)S(=O)(=O)C(C(=O)c1ccccc1)=C2`, for which the T/C by setting is: under setting [6], 96 % of control; under setting [7], 90 % of control; under setting [11], 92 % of control.

Turning to `CC1(C)OC(=O)C=C1Sc1ccccc1`, the T/C is, setting by setting: under setting [12], 100 % of control; under setting [13], 105 % of control; under setting [14], 105 % of control.

For the compound `Cc1ccc(S(=O)(=O)OCCN2CC2)cc1`, the T/C is 94 % of control under setting [1], 89 % of control under setting [2] and 99 % of control under setting [3].

For `O=P1(Nc2ccc(Cl)cc2)N(Cc2ccc(Cl)cc2)CCCN1Cc1ccc(Cl)cc1`, the T/C is 93 % of control under setting [12], 92 % of control under setting [13] and 98 % of control under setting [14].

With `CCC(CC)C(=O)NN(C)C`, the T/C reads like this: under setting [4], 101 % of control; under setting [5], 100 % of control.
